Data: ChEMBL document CHEMBL5385929, “Tabersonine Enhances Olaparib Sensitivity through FHL1-Mediated Epithelial-Mesenchymal Transition in an Ovarian Tumor” (J Nat Prod, 2024)
Activity calls are given as the source filed them. The calls are words filed in the database; no cut-off is given here.

Key:
A2780 [1] = test: Potentiation of olaparib-induced antitumor activity against shFHL1-1 RNA-transfected human A2780 cells xenografted in BALB/c mouse assessed as decrease in tumor weight at 15 mg/kg, ip co-administered with olaparib for 2 weeks; assay type: functional, organism-based
A2780 [2] = test: Potentiation of olaparib-induced antitumor activity against shNC RNA-transfected human A2780 cells xenografted in BALB/c mouse assessed as decrease in lung metastatic nodules at 15 mg/kg, ip co-administered with olaparib every other day from day 6 of tumor cell inoculation and measured on day 30 post-tumor cell inoculation by H and E staining based bright field microscopic analysis; assay type: functional, organism-based; conditions: time 24.0 day
SK-OV-3 [3] = test: Potentiation of olaparib sensitivity in human SK-OV-3 cells transfected with shFLH1-2 RNA assessed as downregulation of EMT signaling by measuring vimentin protein expression at 10 uM in presence of olaparib by western blot analysis; assay type: functional, cell-based
SK-OV-3 [4] = test: Potentiation of olaparib sensitivity in human SK-OV-3 cells transfected with shFHL1-2 RNA assessed as inhibition of cell invasion at 10 uM measured after 48 hrs in presence of olaparib by Transwell assay; assay type: functional, cell-based
SK-OV-3 [5] = test: Potentiation of olaparib sensitivity in human SK-OV-3 cells assessed as inhibition of cell viability at 10 uM measured after 5 days in presence of olaparib by CCK8 assay; assay type: functional, cell-based; conditions: time 5.0 day
SK-OV-3 [6] = test: Potentiation of olaparib sensitivity in human SK-OV-3 cells transfected with shFLH1-1 RNA assessed as downregulation of EMT signaling by measuring E-cadherin protein expression at 10 uM in presence of olaparib by western blot analysis; assay type: functional, cell-based
SK-OV-3 [7] = test: Potentiation of olaparib sensitivity in human SK-OV-3 cells assessed as inhibition of cell invasion at 10 uM measured after 48 hrs in presence of olaparib by Transwell assay; assay type: functional, cell-based
A2780 [8] = test: Downregulation of EMT signalling in human A2780 cells transfected with shFHL1-2 RNA assessed as N-cadherin protein expression at 10 uM by western blot analysis; assay type: functional, cell-based
A2780 [9] = test: Potentiation of olaparib sensitivity in human A2780 cells transfected with shFLH1-2 RNA assessed as downregulation of EMT signaling by measuring vimentin protein expression at 10 uM in presence of olaparib by western blot analysis; assay type: functional, cell-based
[10] = Toxicity in BALB/c mouse xenografted with human A2780 cells assessed as decrease in body weight at 30 mg/kg, ip administered every other day and measured on day 6; assay type: organism-based; conditions: in vivo, 144 h, time 6 day
A2780 [11] = test: Potentiation of olaparib-induced antitumor activity against shNC RNA-transfected human A2780 cells xenografted in BALB/c mouse assessed as decrease in tumor weight at 15 mg/kg, ip co-administered with olaparib for 2 weeks; assay type: functional, organism-based
SK-OV-3 [12] = test: Downregulation of EMT signalling in human SK-OV-3 cells assessed as upregulation of E-cadherin protein expression at 10 uM by western blot analysis; assay type: functional, cell-based
A2780 [13] = test: Downregulation of EMT signalling in human A2780 cells transfected with shFHL1-1 RNA assessed as E-cadherin protein expression at 10 uM by western blot analysis; assay type: functional, cell-based
SK-OV-3 [14] = test: Downregulation of EMT signalling in human SK-OV-3 cells transfected with shFHL1-1 RNA assessed as E-cadherin protein expression at 10 uM by western blot analysis; assay type: functional, cell-based
A2780 [15] = test: Potentiation of olaparib sensitivity in human A2780 cells assessed as induction of DNA damage response by measuring increase in tail moment at 10 uM measured after 48 hrs in presence of olaparib by alkaline comet assay; assay type: functional, cell-based
A2780 [16] = test: Antiproliferative activity against human A2780 cells assessed as inhibition of cell viability measured after 48 hrs by CCK8 assay; assay type: functional, cell-based; conditions: A2780, 48 h
A2780 [17] = test: Downregulation of EMT signalling in human A2780 cells transfected with shFHL1-2 RNA assessed as vimentin protein expression at 10 uM by western blot analysis; assay type: functional, cell-based
A2780 [18] = test: Upregulation of FHL1 protein expression in human A2780 cells by western blot analysis; assay type: functional, cell-based; conditions: dose 5-20 µM
Mus musculus [19] = test: Potentiation of olaparib sensitivity in BALB/c mouse xenografted with shNC RNA-transfected human A2780 cells assessed as upregulation of FHL1 protein expression in tumor at 15 mg/kg, ip co-administered with olaparib for 2 weeks by western blot analysis; assay type: functional, organism-based
Mus musculus [20] = test: Potentiation of olaparib sensitivity in BALB/c mouse xenografted with shFHL1-1 RNA-transfected human A2780 cells assessed as increase in FHL1 protein expression in tumor at 15 mg/kg, ip co-administered with olaparib for 2 weeks by immunohistochemistry; assay type: functional, organism-based
A2780 [21] = test: Potentiation of olaparib-induced antitumor activity against human A2780 cells xenografted in BALB/c mouse assessed as decrease in tumor volume at 15 mg/kg, ip co-administered with olaparib for 2 weeks; assay type: functional, organism-based
Mus musculus [22] = test: Potentiation of olaparib sensitivity in BALB/c mouse xenografted with shFHL1-1 RNA-transfected human A2780 cells assessed as upregulation of FHL1 protein expression in tumor at 15 mg/kg, ip co-administered with olaparib for 2 weeks by western blot analysis; assay type: functional, organism-based
A2780 [23] = test: Potentiation of olaparib sensitivity in human A2780 cells transfected with shFLH1-1 RNA assessed as downregulation of EMT signaling by measuring E-cadherin protein expression at 10 uM in presence of olaparib by western blot analysis; assay type: functional, cell-based
SK-OV-3 [24] = test: Downregulation of EMT signalling in human SK-OV-3 cells transfected with shFHL1-1 RNA assessed as vimentin protein expression at 10 uM by western blot analysis; assay type: functional, cell-based
SK-OV-3 [25] = test: Upregulation of FHL1 protein expression in human SK-OV-3 cells by western blot analysis; assay type: functional, cell-based; conditions: dose 5-20 µM
[26] = Toxicity in BALB/c mouse xenografted with human A2780 cells assessed as effect on body weight at 5 to 15 mg/kg, ip administered every other day for 2 weeks; assay type: organism-based; conditions: in vivo, 336 h, dose 5-15 mg/kg
SK-OV-3 [27] = test: Potentiation of olaparib sensitivity in human SK-OV-3 cells assessed as inhibition of colony formation at 10 uM incubated for 48 hrs in presence of olaparib followed by drug wash-out and incubated in fresh medium for 2 weeks by crystal violet staining based analysis; assay type: functional, cell-based
SK-OV-3 [28] = test: Potentiation of olaparib sensitivity in human SK-OV-3 cells transfected with shFHL1-1 RNA assessed as inhibition of cell migration at 10 uM measured after 24 to 48 hrs in presence of olaparib by wound healing assay; assay type: functional, cell-based; conditions: time 24-48 hrs
SK-OV-3 [29] = test: Potentiation of olaparib sensitivity in human SK-OV-3 cells transfected with shFLH1-2 RNA assessed as downregulation of EMT signaling by measuring E-cadherin protein expression at 10 uM in presence of olaparib by western blot analysis; assay type: functional, cell-based
[30] = Toxicity in BALB/c mouse xenografted with human A2780 cells assessed as effect on body weight at 15 mg/kg, ip co-administered with olaparib for 2 weeks; assay type: organism-based; conditions: in vivo, 336 h
A2780 [31] = test: Potentiation of olaparib sensitivity in human A2780 cells transfected with shFHL1-1 RNA assessed as inhibition of cell migration at 10 uM measured after 24 to 48 hrs in presence of olaparib by wound healing assay; assay type: functional, cell-based; conditions: time 24-48 hrs
A2780 [32] = test: Potentiation of olaparib-induced antitumor activity against shFHL1-1 RNA-transfected human A2780 cells xenografted in BALB/c mouse assessed as decrease in tumor volume at 15 mg/kg, ip co-administered with olaparib for 2 weeks; assay type: functional, organism-based

In the case of CC[C@]12C=CCN3CC[C@]4(C(=C(C(=O)OC)C1)Nc1ccccc14)[C@@H]32 [TABERSONINE], the Activity (A2780 [1]) is reported as “inactive”, the Activity (A2780 [2]) is reported as “Active” and the Activity (SK-OV-3 [3]) is reported as “inactive”. For the same compound, the Activity (SK-OV-3 [4]) was “inactive”, the Activity (SK-OV-3 [5]) was “Active” and the Activity (SK-OV-3 [6]) was “inactive”. The Activity (SK-OV-3 [7]) was “Active”, the inhibition (A2780 [8]) was “inactive” and the Activity (A2780 [9]) was “inactive”. For the same compound, the Activity [10] was “Toxic”, the Activity (A2780 [11]) was “Active” and the inhibition (SK-OV-3 [12]) was “Active”. For the same compound, the inhibition (A2780 [13]) was “inactive”, the inhibition (SK-OV-3 [14]) was “inactive” and the Activity (A2780 [15]) was “Active”. For the same compound, the IC50 (A2780 [16]) was 18 µM, the inhibition (A2780 [17]) was “inactive” and the Activity (A2780 [18]) was “Dose-Dependent Effect”. The Activity (Mus musculus [19]) was “Active”, the Activity (Mus musculus [20]) was “inactive” and the Activity (A2780 [21]) was “Active”. The Activity (Mus musculus [22]) was “inactive”, the Activity (A2780 [23]) was “inactive” and the inhibition (SK-OV-3 [24]) was “inactive”. For the same compound, the Activity (SK-OV-3 [25]) was “Dose-Dependent Effect”, the Activity [26] was “Non-Toxic” and the Activity (SK-OV-3 [27]) was “Active”. For the same compound, the Activity (SK-OV-3 [28]) was “inactive”, the Activity (SK-OV-3 [29]) was “inactive” and the Activity [30] was “Non-Toxic”. For the same compound, the Activity (A2780 [31]) was “inactive” and the Activity (A2780 [32]) was “inactive”.
